Results published in the supplement of paper PMC10307832.

What was measured:
Test in all cases: relative viability (nuclei count vs DMSO), 5 days (fraction); higher = more cells survive
kb NB 142-70 = compound: C1CSC2=C(C(=O)N1)SC3=C2C=C(C=C3)O [kb NB 142-70]
Outline: (§1)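 Lung cancer cell lines were seeded into 1536-well plates, kept overnight at 37 °C and pinned with five library-drug doses (not always all listed) spaced by √10. After 5 days, nuclei were Hoechst-stained, imaged at 4× and counted with MetaXpress. Viability is treated-well nuclei over vehicle-well nuclei, taken as a median across plates. Plates needed control CV below 25% and at least one doubling.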

[1] = compound: NCC(=O)Nc1ccc(-n2nc(C(F)(F)F)cc2-c2ccc3c(ccc4ccccc43)c2)cc1
Outline: as §1

[2] = compound: C1CSC2=C(C(=O)N1)SC3=C2C=C(C=C3)O [kb NB 142-70] + CC(=O)Nc1cccc(-n2c(=O)n(C3CC3)c(=O)c3c(Nc4ccc(I)cc4F)n(C)c(=O)c(C)c32)c1 [Trametinib] (partner 0.02 µM)
Outline: (§2)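 Dosing by pin tool came one day after lung cancer cell lines were seeded in 1536-well plates, using either one drug or a fixed anchor-drug dose plus five library-drug doses (not always all listed) in √10 steps. After 5 days, nuclei were counted on 4× images. Relative viability is treated-well nuclei count divided by vehicle-well nuclei count, and values are medians of duplicate plates.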

[3] = compound: NCC(=O)Nc1ccc(-n2nc(C(F)(F)F)cc2-c2ccc3c(ccc4ccccc43)c2)cc1 + CC1(C)CCC(c2ccc(Cl)cc2)=C(CN2CCN(c3ccc(C(=O)NS(=O)(=O)c4ccc(N[C@H](CCN5CCOCC5)CSc5ccccc5)c(S(=O)(=O)C(F)(F)F)c4)cc3)CC2)C1 [Navitoclax] (partner 0.5 µM)
Outline: as §2

Cell Line	relative viability (kb NB 142-70; 0.1 µM)	relative viability (kb NB 142-70; 1 µM)	relative viability (kb NB 142-70; 3.162 µM)	relative viability ([1]; 0.02 µM)	relative viability ([1]; 0.06325 µM)	relative viability ([1]; 0.2 µM)	relative viability ([1]; 0.6325 µM)	relative viability ([1]; 2 µM)	relative viability ([2]; first compound 0.1 µM)	relative viability ([2]; first compound 1 µM)	relative viability ([2]; first compound 3.162 µM)	relative viability ([3]; first compound 0.02 µM)	relative viability ([3]; first compound 0.06325 µM)	relative viability ([3]; first compound 0.2 µM)	relative viability ([3]; first compound 0.6325 µM)	relative viability ([3]; first compound 2 µM)
NCI-H2347	1.05	1.02	0.949	0.99	1.06	1.16	1.11	1.07	0.259	0.267	0.233	0.771	0.878	1	0.906	0.833
NCI-H2009	1.06	1.07	0.788	0.952	1.02	1.07	1	1.05	0.284	0.29	0.263	1.12	1.15	1.27	1.11	1.13
HCC-15	1.03	1	0.978	1	1.06	0.963	1.03	1.02	0.373	0.355	0.444	0.746	0.731	0.716	0.716	0.693
HCC-44	1.01	0.997	1.08	0.996	1.03	0.952	0.984	1	1.06	1.06	1.1	0.866	0.942	1.02	0.958	0.944
COR-L23	0.961	1.14	0.507	1.08	1.02	1.07	1	0.882	0.558	0.588	0.32	1.1	0.935	1.01	1.07	1
HCC-78	1.08	0.998	0.877	0.993	0.93	1.04	0.944	0.968	0.683	0.823	0.838	0.854	0.868	0.729	0.715	0.908
NCI-H727	1.09	1.13	1.02	0.858	1.16	1.02	0.922	1.09	0.419	0.367	0.316	0.464	0.568	0.52	0.474	0.469
NCI-H2087	1.04	1.29	0.951	0.978	1.09	1.1	1.08	1.02	0.18	0.263	0.194	0.849	1.11	0.939	0.969	1.03
BEN	0.961	0.894	0.738	0.99	0.972	0.994	0.894	0.975	1.02	0.99	0.892	0.0632	0.0631	0.0469	0.0862	0.0668
EKVX	0.933	0.981	0.988	1.03	1.01	0.971	0.966	1.01	0.357	0.378	0.296	0.902	0.969	1.07	0.971	1.03
LXF-289	0.999	1.03	0.975	1.01	1.06	0.988	0.991	1.03	0.668	0.662	0.69	0.918	0.977	0.943	0.954	0.861
NCI-H1650	0.988	1.02	0.849	0.913	0.995	0.847	0.971	1.09	0.557	0.507	0.761	1.25	1.5	1.32	1.1	1.31
NCI-H2085	0.964	0.952	0.712	0.961	1.01	1.03	0.982	1.01	0.515	0.542	0.325	1.06	1.16	1.28	1.17	1.08
NCI-H1793	0.911	1.11	0.863	0.984	1.08	0.86	0.915	1.08	0.399	0.542	0.463	0.529	0.446	0.395	0.411	0.416
LC-2-ad	1.09	0.977	0.886	0.951	1.08	1	0.968	1.01	0.898	0.937	0.875	0.456	0.44	0.484	0.492	0.535
COR-L 105	0.86	0.88	1.02	0.843	1.02	0.916	0.891	0.94	0.452	0.426	0.448	0.817	0.947	0.649	0.841	0.703
NCI-H1355	1.02	0.885	1.01	0.971	1.07	0.883	1.02	0.995	0.384	0.387	0.447	0.921	0.895	1	0.999	0.978
H3255	1.01	0.954	1.02	0.951	1.01	0.974	0.866	1.05	0.585	0.602	0.593	0.481	0.578	0.594	0.482	0.457
NCI-H1993	1.03	0.857	0.716	0.934	1.1	1.05	1	1.04	0.479	0.741	0.485	0.945	1.06	1.02	1	0.956
